pEC50: −log10 of the molar value. ≈ marks a conversion by molar mass, not a printed value. One block for each compound: values may come before it.
Columns and labels:
[1] = Metabolic stability in rat liver microsomes assessed as intrinsic clearance at 10 uM preincubated for 5 mins followed by NADPH addition and measured upto 65 mins by LC-MS/MS analysis; type: ADME, Microsome; conditions: time < 70 min, read-out: CLH
[2] = target: T1, Glutamate NMDA receptor; GRIN1/GRIN2A (Homo sapiens, UniProt Q05586+Q12879); experiment: Positive allosteric modulation of recombinant human GluN1/GluN2A receptor stably expressed in HEK293 cells assessed as increase in glycine/L-glutamate-induced channel current at -70 mV holding potential by whole cell patch clamp method; type: cell-based
[3] = target: T1, Glutamate NMDA receptor; GRIN1/GRIN2A; experiment: Positive allosteric modulation of recombinant human GluN1/GluN2A receptor stably expressed in HEK293 cells assessed as increase in glycine/L-glutamate-induced channel current at -70 mV holding potential by whole cell patch clamp method relative to control; type: cell-based; conditions: filed as positive allosteric modulator
[4] = target: T2, Glutamate NMDA receptor; GRIN1/GRIN2B (Homo sapiens, UniProt Q05586+Q13224); experiment: Positive allosteric modulation of recombinant human GluN1/GluN2B receptor stably expressed in HEK293 cells assessed as increase in glycine/L-glutamate-induced channel current at -70 mV holding potential by whole cell patch clamp method; type: cell-based
[5] = target: T2, Glutamate NMDA receptor; GRIN1/GRIN2B; experiment: Positive allosteric modulation of recombinant human GluN1/GluN2B receptor stably expressed in HEK293 cells assessed as increase in glycine/L-glutamate-induced channel current at -70 mV holding potential by whole cell patch clamp method relative to control; type: cell-based; conditions: filed as positive allosteric modulator
[6] = Lipophilicity, logD of compound in MeOH at 20 uM by HPLC analysis; type: physicochemical
[7] = Metabolic stability in mouse liver microsomes assessed as intrinsic clearance at 10 uM preincubated for 5 mins followed by NADPH addition and measured upto 65 mins by LC-MS/MS analysis; type: ADME, Microsome; conditions: time < 70 min, read-out: CLH
[8] = Metabolic stability in human liver microsomes assessed as intrinsic clearance at 10 uM preincubated for 5 mins followed by NADPH addition and measured upto 65 mins by LC-MS/MS analysis; type: ADME, Microsome; conditions: time < 70 min, read-out: CLH
[9] = Clearance in Sprague-Dawley rat by LC-MS/MS analysis; type: ADME; conditions: in vivo
[10] = Oral bioavailability in Sprague-Dawley rat by LC-MS/MS analysis; type: ADME, organism-based; conditions: in vivo
[11] = Ratio of drug concentration in ip dosed CD-1 mouse brain to plasma after 1 hr by LC-MS/MS analysis; type: ADME, organism-based; conditions: brain and plasma
[12] = Aqueous solubility of compound in PBS incubated for 1 hr under shaking condition by HPLC-MS/MS analysis; type: physicochemical
[13] = Metabolic stability in dog liver microsomes assessed as intrinsic clearance at 10 uM preincubated for 5 mins followed by NADPH addition and measured upto 65 mins by LC-MS/MS analysis; type: ADME, Canis lupus familiaris, Microsome; conditions: time < 70 min, read-out: CLH
[14] = Clearance in CD-1 mouse by LC-MS/MS analysis; type: ADME; conditions: in vivo
[15] = Clearance in Beagle dog by LC-MS/MS analysis; type: ADME, Canis lupus familiaris; conditions: in vivo
[16] = Oral bioavailability in CD-1 mouse by LC-MS/MS analysis; type: ADME, organism-based; conditions: in vivo
[17] = Oral bioavailability in Beagle dog by LC-MS/MS analysis; type: ADME, organism-based, Canis lupus familiaris; conditions: in vivo
[18] = Clearance in po dosed rat; type: ADME, organism-based; conditions: in vivo
[19] = Half life in po dosed rat; type: ADME, organism-based; conditions: in vivo
[20] = Oral bioavailability in rat; type: ADME, organism-based; conditions: in vivo

Structure (SMILES): CC[C@](C)(O)CC[C@@H](C)[C@H]1CC[C@H]2[C@@H]3CC=C4C[C@@](C)(O)CC[C@]4(C)[C@H]3CC[C@]12C
microsomal CLint at 10 µM [1]: 2.7 µL/min/mg | pEC50 [2]: 7.26 | Emax [3]: 170% | pEC50 [4]: 7.00 | Emax [5]: 120% | logD at 20 µM [6]: 6.5 | microsomal CLint at 10 µM [7]: 8.4 µL/min/mg | microsomal CLint at 10 µM [8]: 0.14 µL/min/mg | clearance [9]: 36.7 mL/min/kg | bioavailability [10]: 89% | Kp at 1 h [11]: 0.2

Structure (SMILES): CC[C@@](C)(O)CC[C@@H](C)[C@H]1CC[C@H]2[C@@H]3CC=C4C[C@@](C)(O)CC[C@]4(C)[C@H]3CC[C@]12C
pEC50 [2]: 6.82 | Emax [3]: 280% | pEC50 [4]: 6.52 | Emax [5]: 190%

Structure (SMILES): CCCC[C@](C)(O)CC[C@@H](C)[C@H]1CC[C@H]2[C@@H]3CC=C4C[C@@](C)(O)CC[C@]4(C)[C@H]3CC[C@]12C
pEC50 [2]: 7.00 | Emax [3]: 170% | pEC50 [4]: 6.35 | Emax [5]: 170%

Structure (SMILES): C[C@H](CCC(C)(C)O)[C@H]1CC[C@H]2[C@@H]3CC=C4C[C@@](C)(O)CC[C@]4(C)[C@H]3CC[C@]12C
microsomal CLint at 10 µM [1]: 35 µL/min/mg | logD at 20 µM [6]: 5 | solubility at 1 h [12]: 0.62 µM (≈ 0.25 µg/mL) | microsomal CLint at 10 µM [7]: 42 µL/min/mg | microsomal CLint at 10 µM [13]: 16 µL/min/mg | microsomal CLint at 10 µM [8]: 13 µL/min/mg | clearance [14]: 18.3 mL/min/kg | clearance [9]: 30 mL/min/kg | clearance [15]: 3.33 mL/min/kg | bioavailability [16]: 53% | bioavailability [10]: 23% | bioavailability [17]: 17% | Kp at 1 h [11]: 0.6 | CL/F [18]: 18.3 mL/min/kg | half-life [19]: 1.7 h

Structure (SMILES): C[C@H](CC[C@](C)(O)C1CC1)[C@H]1CC[C@H]2[C@@H]3CC=C4C[C@@](C)(O)CC[C@]4(C)[C@H]3CC[C@]12C
pEC50 [2]: 6.38 | Emax [3]: 130% | pEC50 [4]: 7.22 | Emax [5]: 130%

Structure (SMILES): C[C@H](CC[C@](C)(O)CCO)[C@H]1CC[C@H]2[C@@H]3CC=C4C[C@@](C)(O)CC[C@]4(C)[C@H]3CC[C@]12C
pEC50 [2]: < 5.00 | pEC50 [4]: < 5.00

Structure (SMILES): C[C@H](CC[C@](C)(O)C(F)(F)F)[C@H]1CC[C@H]2[C@@H]3CC[C@H]4C[C@@](C)(O)CC[C@]4(C)[C@H]3CC[C@]12C
pEC50 [2]: 6.74 | Emax [3]: 150% | pEC50 [4]: 6.96 | Emax [5]: 100%

pEC50 [2]: 6.51 | pEC50 [4]: 6.74
Structure (SMILES): C[C@H](CC[C@@](C)(O)C(F)(F)F)[C@H]1CC[C@H]2[C@@H]3CC=C4C[C@@](C)(O)CC[C@]4(C)[C@H]3CC[C@]12C

Structure (SMILES): C[C@H](CC[C@](C)(O)C(F)(F)F)[C@H]1CC[C@H]2[C@@H]3CC=C4C[C@@](C)(O)CC[C@@H]4[C@H]3CC[C@]12C
pEC50 [2]: 7.03 | Emax [3]: 50% | pEC50 [4]: 6.60 | Emax [5]: 52%

Structure (SMILES): COCC[C@@](C)(O)CC[C@@H](C)[C@H]1CC[C@H]2[C@@H]3CC=C4C[C@@](C)(O)CC[C@]4(C)[C@H]3CC[C@]12C
pEC50 [2]: 6.66 | Emax [3]: 87% | pEC50 [4]: 6.23 | Emax [5]: 130%

Structure (SMILES): CC(C)[C@](C)(O)CC[C@@H](C)[C@H]1CC[C@H]2[C@@H]3CC=C4C[C@@](C)(O)CC[C@]4(C)[C@H]3CC[C@]12C
pEC50 [2]: 6.92 | Emax [3]: 170% | pEC50 [4]: 7.09 | Emax [5]: 150%

Structure (SMILES): C[C@H](CC[C@@](C)(O)C1CC1)[C@H]1CC[C@H]2[C@@H]3CC=C4C[C@@](C)(O)CC[C@]4(C)[C@H]3CC[C@]12C
pEC50 [2]: 7.13 | Emax [3]: 180% | pEC50 [4]: 7.31 | Emax [5]: 140%

pEC50 [2]: 5.66 | pEC50 [4]: 5.82
Structure (SMILES): C[C@H](CC[C@](C)(O)C(F)(F)F)[C@H]1CC[C@H]2[C@@H]3CC=C4C[C@](C)(O)CC[C@]4(C)[C@H]3CC[C@]12C

Structure (SMILES): C#C[C@](C)(O)CC[C@@H](C)[C@H]1CC[C@H]2[C@@H]3CC=C4C[C@@](C)(O)CC[C@]4(C)[C@H]3CC[C@]12C
pEC50 [2]: < 5.00 | pEC50 [4]: < 5.00

Structure (SMILES): C[C@H](CC[C@@](C)(O)CCO)[C@H]1CC[C@H]2[C@@H]3CC=C4C[C@@](C)(O)CC[C@]4(C)[C@H]3CC[C@]12C
pEC50 [2]: < 5.00 | pEC50 [4]: < 5.00

Structure (SMILES): CC(C)[C@@](C)(O)CC[C@@H](C)[C@H]1CC[C@H]2[C@@H]3CC=C4C[C@@](C)(O)CC[C@]4(C)[C@H]3CC[C@]12C
pEC50 [2]: 7.22 | Emax [3]: 260% | pEC50 [4]: 7.64 | Emax [5]: 220% | logD at 20 µM [6]: 6.7 | microsomal CLint at 10 µM [7]: 31 µL/min/mg | microsomal CLint at 10 µM [8]: 6.8 µL/min/mg | clearance [9]: 31.7 mL/min/kg | bioavailability [10]: 116% | Kp at 1 h [11]: 0.2

Structure (SMILES): C[C@H](CC[C@](C)(O)C(F)(F)F)[C@H]1CC[C@H]2[C@@H]3CC[C@@H]4C[C@@](C)(O)CC[C@]4(C)[C@H]3CC[C@]12C
pEC50 [2]: < 5.00 | pEC50 [4]: < 5.00

Structure (SMILES): C#C[C@@](C)(O)CC[C@@H](C)[C@H]1CC[C@H]2[C@@H]3CC=C4C[C@@](C)(O)CC[C@]4(C)[C@H]3CC[C@]12C
pEC50 [2]: < 5.00 | pEC50 [4]: 5.96 | Emax [5]: 56%

Structure (SMILES): C[C@H](CC[C@@H](O)C(F)(F)F)[C@H]1CC[C@H]2[C@@H]3CC=C4C[C@@](C)(O)CC[C@]4(C)[C@H]3CC[C@]12C
CL/F [18]: 33.3 mL/min/kg | half-life [19]: 5.75 h | bioavailability [20]: 18%

Structure (SMILES): CC(C)[C@@H](O)CC[C@@H](C)[C@H]1CC[C@H]2[C@@H]3CC=C4C[C@@H](O)CC[C@]4(C)[C@H]3CC[C@]12C
CL/F [18]: 91.7 mL/min/kg | half-life [19]: < 0.6 h | bioavailability [20]: < 10%

Structure (SMILES): CCCC[C@@](C)(O)CC[C@@H](C)[C@H]1CC[C@H]2[C@@H]3CC=C4C[C@@](C)(O)CC[C@]4(C)[C@H]3CC[C@]12C
pEC50 [2]: 6.80 | Emax [3]: 190% | pEC50 [4]: 6.72 | Emax [5]: 170%

From ChEMBL document CHEMBL5131569, “SAGE-718: A First-in-Class N-Methyl-d-Aspartate Receptor Positive Allosteric Modulator for the Potential Treatment of Cognitive Impairment” (J Med Chem, 2022)
